Assay results: patent US9572813B2, “Antiviral agent” (SHIONOGI & CO., LTD., priority 2001, dated 2017)

melting point	Compound
150 to 151 °C	CN1CC(C(=O)c2cnn(Cc3ccc(F)cc3)c2)=C(O)C1=O
129.5 to 131 °C	CC(C)N1CC(C(=O)c2cnn(Cc3ccc(F)cc3)c2)=C(O)C1=O
174 to 178 °C	CC(C)N1CC(C(=O)c2cnc(Cc3ccc(F)cc3)o2)=C(O)C1=O
209 to 210 °C	CN1CC(C(=O)c2nc(Cc3ccc(F)cc3)co2)=C(O)C1=O
143 to 145 °C	CN1CC(C(=O)c2cc(Cc3ccc(F)cc3)co2)=C(O)C1=O
134 to 135 °C	COc1cc(F)ccc1Cc1ccc(C(=O)C2=C(O)C(=O)N(C)C2)o1
160 to 161 °C	COc1cc(Cc2ccc(C(=O)C3=C(O)C(=O)N(C(C)C)C3)o2)ccc1F
164 to 166 °C	COc1cc(Cc2ccc(C(=O)C3=C(O)C(=O)N(C)C3)o2)ccc1F
162 to 163 °C	CC(C)N1CC(C(=O)c2ccc(Cc3ccccc3)o2)=C(O)C1=O
116 to 118 °C	CN1CC(C(=O)c2ccc(Cc3ccccc3)o2)=C(O)C1=O
175 to 176 °C	CN1CC(C(=O)c2oc(C3CCCCC3)cc2Cc2ccc(F)cc2)=C(O)C1=O
140 to 141 °C	CCC(CC)N1CC(C(=O)c2ccc(Cc3ccc(F)cc3)o2)=C(O)C1=O
209 to 211 °C (dec.)	CN1CC(C(=O)c2oc(C(=O)N3CCOCC3)cc2Cc2ccc(F)cc2)=C(O)C1=O
255 to 258 °C (dec.)	CN1CC(C(=O)c2cc(C(=O)O)c(Cc3ccc(F)cc3)o2)=C(O)C1=O
169 to 170 °C	CCNC(=O)c1cc(C(=O)C2=C(O)C(=O)N(C)C2)oc1Cc1ccc(F)cc1
181 to 184 °C	CN1CC(C(=O)c2cc(C(=O)NCc3ccccc3)c(Cc3ccc(F)cc3)o2)=C(O)C1=O
120 to 122 °C	CC(C)N1C(=O)C(O)=C(C(=O)c2ccc(Cc3ccc(F)cc3)o2)C1C (stereo not shown)
95 to 96.5 °C	C=CCN1CC(C(=O)c2ccc(Cc3ccc(F)cc3)o2)=C(O)C1=O
129 to 130 °C	O=C(C1=C(O)C(=O)N(Cc2ccccc2)C1)c1ccc(Cc2ccc(F)cc2)o1
132 to 133 °C	CCC(O)CN1CC(C(=O)c2ccc(Cc3ccc(F)cc3)o2)=C(O)C1=O (stereo not shown)
171 °C	CCCC(O)CN1CC(C(=O)c2ccc(Cc3ccc(F)cc3)o2)=C(O)C1=O (stereo not shown)
119 to 120 °C	O=C(C1=C(O)C(=O)N(CC(O)CO)C1)c1ccc(Cc2ccc(F)cc2)o1 (stereo not shown)
228 to 232 °C (dec.)	O=C(C1=C(O)C(=O)N(CCN2CCCCC2)C1)c1ccc(Cc2ccc(F)cc2)o1
171 to 172 °C	CN1CC(C(=O)c2ccoc2Cc2ccc(F)cc2)=C(O)C1=O
195 to 196 °C	O=C(C1=C(O)C(=O)N(CCO)C1)c1occc1Cc1ccc(F)cc1

melting point	Compound
170 °C	COCCN1CC(C(=O)c2occc2Cc2ccc(F)cc2)=C(O)C1=O
167 °C	CCN1CC(C(=O)c2occc2Cc2ccc(F)cc2)=C(O)C1=O
208 to 210 °C	O=C(C1=C(O)C(=O)N(CC(O)CO)C1)c1occc1Cc1ccc(F)cc1 (stereo not shown)
154 to 156 °C	Cc1cc(Cc2ccc(F)cc2)c(C(=O)C2=C(O)C(=O)N(C)C2)o1
125 to 127 °C	Cc1cc(Cc2ccc(F)cc2)c(C(=O)C2=C(O)C(=O)N(C(C)C)C2)o1
157 to 160 °C	CN1CC(C(=O)c2oc(Cc3ccc(F)cc3)cc2Cc2ccc(F)cc2)=C(O)C1=O
159 to 161 °C	CC(C)N1CC(C(=O)c2oc(Cc3ccc(F)cc3)cc2Cc2ccc(F)cc2)=C(O)C1=O
179 to 181 °C	CN1CC(C(=O)c2oc(C(C)(C)C)cc2Cc2ccc(F)cc2)=C(O)C1=O
242 to 245 °C	Cc1ccc(-c2cc(Cc3ccc(F)cc3)c(C(=O)C3=C(O)C(=O)N(C)C3)o2)cc1
148 to 150 °C	CC(C)(C)c1cc(Cc2ccc(F)cc2)c(C(=O)C2=C(O)C(=O)N(C3CC3)C2)o1
170 °C	Cc1nc(C(=O)C2=C(O)C(=O)N(C)C2)c(Cc2ccc(F)cc2)o1
224 to 226 °C	CC(C)N1CC(C(=O)c2cn(Cc3ccc(F)cc3)cn2)=C(O)C1=O
156 to 159 °C	CC(C)N1CC(C(=O)c2cncn2Cc2ccc(F)cc2)=C(O)C1=O
221 to 223 °C	CN1CC(C(=O)c2ccc(Cc3ccc(F)cc3)[nH]2)=C(O)C1=O
265 to 267 °C	CN1CC(C(=O)c2c[nH]cc2Cc2ccc(F)cc2)=C(O)C1=O
223 to 225 °C	CN1CC(c2cnc(Cc3ccc(F)cc3)cn2)=C(O)C1=O
207 to 209 °C	CC(C)N1CC(c2cnc(Cc3ccc(F)cc3)cn2)=C(O)C1=O
169 to 171 °C	CN1CC(c2ncnc(OCc3ccc(F)cc3)n2)=C(O)C1=O
214 to 216 °C	CN1CC(c2ncc(CCc3ccc(F)cc3)s2)=C(O)C1=O
222 to 224 °C	CN1CC(c2ncc(Cc3ccc(F)cc3)s2)=C(O)C1=O
212 to 214 °C	CC(C)N1CC(c2ncc(Cc3ccc(F)cc3)s2)=C(O)C1=O
240 to 241 °C	CC(C)c1ccccc1COc1cc(C2=C(O)C(=O)N(C)C2)ncn1
225 to 228 °C	CN1CC(c2cc(CCc3ccc(F)cc3)ncn2)=C(O)C1=O
225 to 228 °C	CC(C)N1CC(c2cc(CCc3ccc(F)cc3)ncn2)=C(O)C1=O
162 to 164 °C	CN1CC(c2cc(C(Cc3ccc(F)cc3)Cc3ccc(F)cc3)ncn2)=C(O)C1=O

melting point	Compound
181 to 183 °C	CC(C)N1CC(c2cc(C(Cc3ccc(F)cc3)Cc3ccc(F)cc3)ncn2)=C(O)C1=O
200 to 202 °C	CN1CC(c2ccc(Oc3ccccc3)cn2)=C(O)C1=O
181 to 183 °C	CC(C)N1CC(c2ccc(Oc3ccccc3)cn2)=C(O)C1=O
229 to 230 °C	CN1CC(c2ccc(Oc3ccc(F)cc3)cn2)=C(O)C1=O
178 to 179 °C	CC(C)N1CC(c2ccc(Oc3ccc(F)cc3)cn2)=C(O)C1=O
210 to 211 °C	CN1CC(c2ccc(OCc3ccc(F)cc3)cn2)=C(O)C1=O
228 to 230 °C	CN1CC(c2ccc([S+]([O-])c3ccc(F)cc3)cn2)=C(O)C1=O (stereo not shown)
163 to 165 °C	CN1CC(c2ncc(Cc3ccc(F)cc3)cn2)=C(O)C1=O
155 to 157 °C	CC(C)N1CC(c2ncc(Cc3ccc(F)cc3)cn2)=C(O)C1=O
207 to 208 °C	CN1CC(c2ncc(Oc3ccccc3)cn2)=C(O)C1=O
230 to 232 °C	CN1CC(c2ncc(Oc3ccc(F)cc3)cn2)=C(O)C1=O
165 to 166 °C	CC(C)N1CC(c2ncc(Oc3ccc(F)cc3)cn2)=C(O)C1=O
229 to 231 °C	CC(C)N1CC(c2cc(CCc3ccccc3)ncn2)=C(O)C1=O
182 to 183 °C	CCC(CC)N1CC(c2cc(CCc3ccccc3)ncn2)=C(O)C1=O
148 to 149 °C	CC(C)N1CC(c2nccc(OCc3ccc(F)cc3)n2)=C(O)C1=O
219 to 221 °C	CC(C)N1CC(c2ncc(OCc3ccc(F)cc3)cn2)=C(O)C1=O
118 to 119 °C	CN1CC(c2nccc(CCc3ccccc3)n2)=C(O)C1=O
126 to 127 °C	CC(C)N1CC(c2nccc(CCc3ccccc3)n2)=C(O)C1=O
220 to 225 °C	CN1CC(c2ccc(Oc3ccccc3)nn2)=C(O)C1=O
203 to 205 °C	CC(C)N1CC(c2ccc(Oc3ccccc3)nn2)=C(O)C1=O
204 to 206 °C	CC(C)N1CC(c2ccc(Oc3ccc(F)cc3)nn2)=C(O)C1=O
203 to 205 °C	CN1CC(c2cc(CCc3ccccc3)cnn2)=C(O)C1=O
233 to 235 °C	CN1CC(c2cnc(Oc3ccccc3)cn2)=C(O)C1=O
216 to 217 °C	CC(C)N1CC(c2cnc(Oc3ccccc3)cn2)=C(O)C1=O
237 to 238 °C	CN1CC(c2cnc(Oc3ccc(F)cc3)cn2)=C(O)C1=O

melting point	Compound
227 to 229 °C	CC(C)N1CC(c2cnc(Oc3ccc(F)cc3)cn2)=C(O)C1=O
190 to 192 °C	CCOC(=O)c1oc2ccc(OCc3ccc(F)cc3)cc2c(=O)c1O
264 to 266 °C	Cn1cnc(-c2oc3cccc(OCc4ccc(F)cc4)c3c(=O)c2O)n1
289 to 292 °C	Cc1nc(-c2oc3cccc(OCc4ccc(F)cc4)c3c(=O)c2O)n[nH]1
254 to 256 °C	O=c1c(O)c(-c2nc[nH]n2)oc2cccc(OCc3ccc(F)cc3)c12
252 to 254 °C	O=c1c(O)c(-c2ncccn2)oc2cccc(OCc3ccc(F)cc3)c12
280 to 282 °C	Cn1ncnc1-c1oc2cc(C(=O)O)cc(OCc3ccc(F)cc3)c2c(=O)c1O
192 to 193 °C	Cn1ncnc1-c1oc2cccc(CCc3ccc(F)cc3)c2c(=O)c1O
260 to 262 °C	O=c1c(O)c(-c2ncn(Cc3ccc(F)cc3)n2)oc2ccccc12
235 to 236 °C	O=C(NCc1ccc(F)cc1)c1oc2ccccc2c(=O)c1O
226 to 227 °C	O=C(c1ccc(Cc2ccc(F)cc2)o1)c1oc2ccccc2c(=O)c1O
222 °C	Cn1c(-c2nnc(Cc3ccc(F)cc3)o2)c(O)c(=O)c2ccccc21
147 to 148 °C	COCc1cc(=O)c(O)c(C(=O)c2ccc(Cc3ccc(F)cc3)o2)o1
174 to 176 °C	COC(=O)c1cc(=O)c(O)c(C(=O)c2ccc(Cc3ccc(F)cc3)o2)o1
146 to 148 °C	O=C(c1ccc(Cc2ccc(F)cc2)o1)c1oc(C(=O)N2CCCCC2)cc(=O)c1O
190 to 194 °C (dec.)	N#Cc1cc(=O)c(O)c(C(=O)c2ccc(Cc3ccc(F)cc3)o2)o1
191 to 192 °C	O=C(c1ccc(Cc2ccc(F)cc2)o1)c1occ(Br)c(=O)c1O
255 to 256 °C	Cc1nc(=O)c(O)c(-c2ccc(Oc3ccc(F)cc3)cn2)[nH]1
283 to 286 °C	Cc1nc(=O)c(O)c(-c2nnc(Cc3ccc(F)cc3)o2)[nH]1
110 to 111 °C	Cn1c(C(=O)c2ccc(Cc3ccc(F)cc3)o2)c(O)c(=O)n1C
166 to 168 °C	O=C1NCCC(C(=O)c2ccc(Cc3ccc(F)cc3)o2)=C1O
229 to 231 °C	O=C(c1ccc(Cc2ccc(F)cc2)o1)c1cc[nH]c(=O)c1O
